Assay: xn = mol fraction of the nth substance listed
Details: 101.3 kPa, Liquid; for viscosity: Capillary tube (Ostwald / Ubbelohde) method

CC(O)CO (stereo not given) [1,2-propanediol] + O
Details | mass density, 318.15 K [kg/m3] | mass density, 328.15 K [kg/m3] | mass density, 338.15 K [kg/m3] | speed of sound, 318.15 K [m/s] | speed of sound, 328.15 K [m/s] | speed of sound, 338.15 K [m/s] | viscosity, 328.15 K [mPa·s] | viscosity, 338.15 K [mPa·s]
x2 = 0.044 | – | 1010.15 | 1002.38 | – | 1414.3 | 1395.8 | 9.223 | 6.72
x2 = 0.0987 | – | 1010.89 | 1003.08 | – | 1421.8 | 1403.2 | 8.612 | 6.302
x2 = 0.1484 | – | 1011.57 | 1003.72 | – | 1426.6 | 1408.2 | 8.046 | 5.915
x2 = 0.2498 | – | 1012.99 | 1005.08 | – | 1440.5 | 1422.2 | 6.905 | 5.133
x2 = 0.3494 | – | 1014.43 | 1006.46 | – | 1460.2 | 1441.9 | 5.842 | 4.398
x2 = 0.4494 | – | 1015.82 | 1007.81 | – | 1486.4 | 1468 | 4.844 | 3.698
x2 = 0.5029 | – | 1016.47 | 1008.45 | – | 1504.2 | 1485.6 | 4.335 | 3.337
x2 = 0.5499 | – | 1016.94 | 1008.91 | 1555.5 | 1522.6 | 1503.8 | 3.901 | 3.027
x2 = 0.5597 | 1024.96 | 1017.01 | 1008.99 | 1559.6 | 1526.7 | 1507.9 | 3.811 | 2.961
x2 = 0.6501 | 1025.1 | 1017.26 | 1009.3 | 1599.9 | 1568.3 | 1549 | 3.002 | 2.378
x2 = 0.7499 | 1023.4 | 1015.84 | 1008.09 | 1637.6 | 1609.2 | 1590.8 | 2.147 | 1.75
x2 = 0.85 | 1017.63 | 1010.71 | 1003.47 | 1637.9 | 1617.9 | 1604.3 | 1.36 | 1.156
x2 = 0.9003 | 1011.96 | 1005.57 | 998.8 | 1615 | 1602.5 | 1593.6 | 1.012 | 0.882
x2 = 0.9115 | 1010.33 | 1004.09 | 997.45 | 1607.7 | 1597.2 | 1589.7 | 0.942 | 0.825
x2 = 0.9154 | 1009.72 | 1003.54 | 996.94 | 1605 | 1595.2 | 1588.2 | 0.917 | 0.806
x2 = 0.927 | 1007.79 | 1001.78 | 995.33 | 1596.5 | 1589 | 1583.5 | 0.848 | 0.749
x2 = 0.9367 | 1006.03 | 1000.17 | 993.86 | 1589 | 1583.4 | 1579.2 | 0.793 | 0.702
x2 = 0.9504 | 1003.28 | 997.67 | 991.56 | 1577.7 | 1575.1 | 1572.9 | 0.72 | 0.639
x2 = 0.9551 | 1002.26 | 996.73 | 990.71 | 1573.6 | 1572.2 | 1570.7 | 0.695 | 0.618
x2 = 0.96 | 1001.16 | 995.72 | 989.78 | 1569.4 | 1569.1 | 1568.4 | 0.672 | 0.597
x2 = 0.9696 | 998.86 | 993.62 | 987.84 | 1561 | 1563.1 | 1563.8 | 0.627 | 0.556
x2 = 0.9797 | 996.22 | 991.21 | 985.63 | 1552.2 | 1556.8 | 1559.2 | 0.582 | 0.515
x2 = 0.9902 | 993.24 | 988.47 | 983.11 | 1543.1 | 1550.5 | 1554.7 | 0.539 | 0.474
x2 = 0.9923 | 992.61 | 987.9 | 982.58 | 1541.4 | 1549.3 | 1553.9 | 0.531 | 0.466
x2 = 0.9948 | 991.85 | 987.19 | 981.93 | 1539.3 | 1547.8 | 1552.9 | 0.521 | 0.457
